# Experimental data taken from PubChem BioAssay (NCI).
#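 Values below derive from 48-hour exposures of cells grown in 96-well plates, with endpoints linearly interpolated between the two concentrations bracketing the appropriate inhibition level. GI50: concentration for 50% inhibition of growth. TGI is the concentration that stops growth completely.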
# Experiments:
# Assay in all cases: NCI anticancer screen, dose series, 48 h
# HCT-116 colon = test system: HCT-116 colon
# SW-620 colon = test system: SW-620 colon
# LOX IMVI melanoma = test system: LOX IMVI melanoma
# HL-60(TB) leukemia = test system: HL-60(TB) leukemia
# HCT-15 colon = test system: HCT-15 colon
# M14 melanoma = test system: M14 melanoma
# NCI/ADR-RES ovarian = test system: NCI/ADR-RES ovarian
# MOLT-4 leukemia = test system: MOLT-4 leukemia
# MALME-3M melanoma = test system: MALME-3M melanoma
# MDA-MB-468 breast = test system: MDA-MB-468 breast
# HCC-2998 colon = test system: HCC-2998 colon
# BT-549 breast = test system: BT-549 breast
# SF-268 CNS = test system: SF-268 CNS
# NCI-H460 lung = test system: NCI-H460 lung
# SK-MEL-5 melanoma = test system: SK-MEL-5 melanoma
# KM12 colon = test system: KM12 colon
# MDA-MB-231 breast = test system: MDA-MB-231 breast
# PC-3 prostate = test system: PC-3 prostate
# EKVX NSCLC = test system: EKVX NSCLC
# CCRF-CEM leukemia = test system: CCRF-CEM leukemia
# HOP-62 NSCLC = test system: HOP-62 NSCLC
# SF-539 CNS = test system: SF-539 CNS
# ACHN renal = test system: ACHN renal
# CAKI-1 renal = test system: CAKI-1 renal
# OVCAR-4 ovarian = test system: OVCAR-4 ovarian
# MDA-MB-435 = test system: MDA-MB-435
# UO-31 renal = test system: UO-31 renal
# T-47D breast = test system: T-47D breast
# K-562 leukemia = test system: K-562 leukemia
# A498 renal = test system: A498 renal
# COLO 205 colon = test system: COLO 205 colon
# SK-OV-3 ovarian = test system: SK-OV-3 ovarian
# TK-10 renal = test system: TK-10 renal
# MCF7 breast = test system: MCF7 breast
# NCI-H23 lung = test system: NCI-H23 lung
# OVCAR-3 ovarian = test system: OVCAR-3 ovarian
# SF-295 CNS = test system: SF-295 CNS
# DU-145 prostate = test system: DU-145 prostate
# SK-MEL-28 melanoma = test system: SK-MEL-28 melanoma
# SNB-19 CNS = test system: SNB-19 CNS
# NCI-H522 lung = test system: NCI-H522 lung
# 786-0 renal = test system: 786-0 renal
# NCI-H226 lung = test system: NCI-H226 lung
# OVCAR-8 ovarian = test system: OVCAR-8 ovarian
# A549 NSCLC = test system: A549 NSCLC
# SNB-75 CNS = test system: SNB-75 CNS
# UACC-62 melanoma = test system: UACC-62 melanoma
# SR leukemia = test system: SR leukemia
# HT29 colon = test system: HT29 colon
# IGROV1 ovarian = test system: IGROV1 ovarian
# UACC-257 melanoma = test system: UACC-257 melanoma
# U251 CNS = test system: U251 CNS
# SN12C renal = test system: SN12C renal
# SK-MEL-2 melanoma = test system: SK-MEL-2 melanoma
# HOP-92 NSCLC = test system: HOP-92 NSCLC
# RPMI-8226 leukemia = test system: RPMI-8226 leukemia
# OVCAR-5 ovarian = test system: OVCAR-5 ovarian
smiles,measurement,setting,value
COc1cc(/C=C/C(=O)c2cc(OC)c(OC)c(OC)c2)ccc1Oc1nc(Nc2ccc(F)cc2)nc(N(C)C)n1,GI50,HCT-116 colon,1.4 µM
same,TGI,HCT-116 colon,3.18 µM
same,GI50,SW-620 colon,1.55 µM
same,TGI,SW-620 colon,3.27 µM
same,GI50,LOX IMVI melanoma,0.478 µM
same,TGI,LOX IMVI melanoma,1.69 µM
same,GI50,HL-60(TB) leukemia,2.21 µM
same,TGI,HL-60(TB) leukemia,8.24 µM
same,GI50,HCT-15 colon,1.18 µM
same,TGI,HCT-15 colon,2.75 µM
same,GI50,M14 melanoma,2.83 µM
same,TGI,M14 melanoma,10.8 µM
same,GI50,NCI/ADR-RES ovarian,1.42 µM
same,TGI,NCI/ADR-RES ovarian,3.39 µM
same,GI50,MOLT-4 leukemia,0.472 µM
same,TGI,MOLT-4 leukemia,> 100 µM
same,GI50,MALME-3M melanoma,1.75 µM
same,TGI,MALME-3M melanoma,4.21 µM
same,GI50,MDA-MB-468 breast,1.35 µM
same,TGI,MDA-MB-468 breast,3.51 µM
same,GI50,HCC-2998 colon,2.03 µM
same,TGI,HCC-2998 colon,4.16 µM
same,GI50,BT-549 breast,1.56 µM
same,TGI,BT-549 breast,3.2 µM
same,GI50,SF-268 CNS,3.43 µM
same,TGI,SF-268 CNS,> 100 µM
same,GI50,NCI-H460 lung,1.45 µM
same,TGI,NCI-H460 lung,3.3 µM
same,GI50,SK-MEL-5 melanoma,2.16 µM
same,TGI,SK-MEL-5 melanoma,4.83 µM
same,GI50,KM12 colon,3.63 µM
same,TGI,KM12 colon,88.6 µM
same,GI50,MDA-MB-231 breast,1.48 µM
same,TGI,MDA-MB-231 breast,3.58 µM
same,GI50,PC-3 prostate,2.77 µM
same,TGI,PC-3 prostate,30.9 µM
same,GI50,EKVX NSCLC,2.15 µM
same,TGI,EKVX NSCLC,9.12 µM
same,GI50,CCRF-CEM leukemia,2.19 µM
same,TGI,CCRF-CEM leukemia,> 100 µM
same,GI50,HOP-62 NSCLC,1.83 µM
same,TGI,HOP-62 NSCLC,3.88 µM
same,GI50,SF-539 CNS,1.64 µM
same,TGI,SF-539 CNS,3.09 µM
same,GI50,ACHN renal,2.3 µM
same,TGI,ACHN renal,7.48 µM
same,GI50,CAKI-1 renal,1.98 µM
same,TGI,CAKI-1 renal,6.67 µM
same,GI50,OVCAR-4 ovarian,2.07 µM
same,TGI,OVCAR-4 ovarian,10.6 µM
same,GI50,MDA-MB-435,1.63 µM
same,TGI,MDA-MB-435,3.54 µM
same,GI50,UO-31 renal,1.12 µM
same,TGI,UO-31 renal,2.36 µM
same,GI50,T-47D breast,1.87 µM
same,TGI,T-47D breast,56.1 µM
same,GI50,K-562 leukemia,1.4 µM
same,TGI,K-562 leukemia,> 100 µM
same,GI50,A498 renal,3.99 µM
same,TGI,A498 renal,15.2 µM
same,GI50,COLO 205 colon,4.45 µM
same,TGI,COLO 205 colon,16.8 µM
same,GI50,SK-OV-3 ovarian,8.42 µM
same,TGI,SK-OV-3 ovarian,29.9 µM
same,GI50,TK-10 renal,2.53 µM
same,TGI,TK-10 renal,7.3 µM
same,GI50,MCF7 breast,1.06 µM
same,TGI,MCF7 breast,4.07 µM
same,GI50,NCI-H23 lung,1.63 µM
same,TGI,NCI-H23 lung,3.63 µM
same,GI50,OVCAR-3 ovarian,2.57 µM
same,TGI,OVCAR-3 ovarian,> 100 µM
same,GI50,SF-295 CNS,1.98 µM
same,TGI,SF-295 CNS,5.49 µM
same,GI50,DU-145 prostate,3.99 µM
same,TGI,DU-145 prostate,18.7 µM
same,GI50,SK-MEL-28 melanoma,1.8 µM
same,TGI,SK-MEL-28 melanoma,4.07 µM
same,GI50,SNB-19 CNS,1.86 µM
same,TGI,SNB-19 CNS,4.58 µM
same,GI50,NCI-H522 lung,1.47 µM
same,TGI,NCI-H522 lung,3.24 µM
same,GI50,786-0 renal,1.45 µM
same,TGI,786-0 renal,3.23 µM
same,GI50,NCI-H226 lung,1.44 µM
same,TGI,NCI-H226 lung,3.23 µM
same,GI50,OVCAR-8 ovarian,1.55 µM
same,TGI,OVCAR-8 ovarian,6.57 µM
same,GI50,A549 NSCLC,4.49 µM
same,TGI,A549 NSCLC,19.2 µM
same,GI50,SNB-75 CNS,2.54 µM
same,TGI,SNB-75 CNS,21.1 µM
same,GI50,UACC-62 melanoma,1.41 µM
same,TGI,UACC-62 melanoma,3 µM
same,GI50,SR leukemia,0.7 µM
same,TGI,SR leukemia,> 100 µM
same,GI50,HT29 colon,1.54 µM
same,TGI,HT29 colon,3.55 µM
same,GI50,IGROV1 ovarian,1.93 µM
same,TGI,IGROV1 ovarian,4.49 µM
same,GI50,UACC-257 melanoma,2.83 µM
same,TGI,UACC-257 melanoma,12.6 µM
same,GI50,U251 CNS,0.503 µM
same,TGI,U251 CNS,2.43 µM
same,GI50,SN12C renal,1.23 µM
same,TGI,SN12C renal,2.73 µM
same,GI50,SK-MEL-2 melanoma,1.69 µM
same,TGI,SK-MEL-2 melanoma,3.79 µM
same,GI50,HOP-92 NSCLC,1.67 µM
same,TGI,HOP-92 NSCLC,6.72 µM
same,GI50,RPMI-8226 leukemia,0.751 µM
same,TGI,RPMI-8226 leukemia,5.21 µM
same,GI50,OVCAR-5 ovarian,1.48 µM
same,TGI,OVCAR-5 ovarian,3.89 µM
